Results on ten molecules are retold here after BindingDB's records for doi:10.1016/1074-5521(95)90124-8 (University of California San Diego, 1995).

The target in test [1] is cAMP-dependent protein kinase (Oryctolagus cuniculus, UniProt Q95J97). Kind of test: Inhibition Assay. Particulars: pH 7.5. The text has this:
Cyclic AMP-dependent protein kinase (PKA) enzyme inhibition assay using purified recombinant C subunit of PKA (catalytic (C) subunit (cPKA)) with holoenzyme purified from rabbit muscle.

The target of test [2] is Protein kinase C beta type (Rattus norvegicus, UniProt P68403). Kind of test: Inhibition Assay. The settings on record: 30 °C.
Protein kinase C beta type, sequence (P68403 whole entry): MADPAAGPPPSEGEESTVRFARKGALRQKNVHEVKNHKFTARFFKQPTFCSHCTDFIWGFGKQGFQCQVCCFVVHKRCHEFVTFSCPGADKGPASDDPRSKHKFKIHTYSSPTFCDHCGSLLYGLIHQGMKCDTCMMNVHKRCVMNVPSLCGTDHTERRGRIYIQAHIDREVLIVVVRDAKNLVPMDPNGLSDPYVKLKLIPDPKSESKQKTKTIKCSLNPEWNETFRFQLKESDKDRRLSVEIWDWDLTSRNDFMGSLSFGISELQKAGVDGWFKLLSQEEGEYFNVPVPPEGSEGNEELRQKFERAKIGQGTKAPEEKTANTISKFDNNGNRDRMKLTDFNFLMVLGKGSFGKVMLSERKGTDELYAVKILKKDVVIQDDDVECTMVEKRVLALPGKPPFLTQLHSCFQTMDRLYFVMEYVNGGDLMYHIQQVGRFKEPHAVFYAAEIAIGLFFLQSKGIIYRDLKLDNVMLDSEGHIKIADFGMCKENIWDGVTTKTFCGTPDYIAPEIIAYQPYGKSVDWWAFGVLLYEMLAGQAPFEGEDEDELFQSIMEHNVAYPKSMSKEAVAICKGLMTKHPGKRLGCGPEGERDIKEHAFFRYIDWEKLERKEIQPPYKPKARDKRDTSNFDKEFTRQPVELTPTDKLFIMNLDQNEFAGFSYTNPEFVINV

Counter-ions that a name gives are not always drawn.

As to `CN[C@@H]1C[C@H]2O[C@@](C)([C@@H]1OC)n1c3ccccc3c3c4c(c5c6ccccc6n2c5c31)C(=O)NC4`, in test [1], the Ki came to 0.035 µM.
In the case of `O=C(N[C@@H]1CNCCC[C@H]1OC(=O)c1cc(O)c(C(=O)c2ccccc2O)c(O)c1)c1ccc(O)cc1` [14''-Decarboxybalanol hydrochloride, 5], in test [1] (30 °C), the IC50 was 0.018 µM and the Ki was found to be 0.011 µM. In test [2], this molecule yielded an IC50 of 6.9 µM and a Ki of 5 µM.
For `CCCCCCOC(=O)[C@@]1(O)CC2O[C@]1(C)n1c3ccccc3c3c4c(c5c6ccccc6n2c5c31)C(=O)NC4` [KT5720, 9], the Ki is 0.056 µM in test [1] and > 2 µM in test [2].
With `O=C(N[C@@H]1CNCCC[C@H]1OC(=O)c1cc(O)c(C(=O)c2ccccc2C(=O)O)c(O)c1)c1ccc(O)cc1`, in test [1] (30 °C), the IC50 worked out at 0.0063 µM and the affinity, expressed as Ki, was 0.0039 µM. In test [2] (pH 7.5), this molecule showed an IC50 of 0.834 µM and a Ki of 0.64 µM.
In the case of `O=C(N[C@@H]1CNCCC[C@H]1OC(=O)c1ccc(C(=O)c2c(O)cccc2C(=O)O)cc1)c1ccc(O)cc1` [4'',6''-Dideoxybalanol, 6], the IC50 in test [1] (30 °C) came to 0.0055 µM; in test [2] (pH 7.5) it was 0.111 µM. Further, the results for the Ki in test [1] (30 °C) and in test [2] (pH 7.5) were 0.0034 µM and 0.08 µM, respectively.
For `O=C(N[C@@H]1CNCCC[C@H]1O)c1ccc(O)cc1` [Hexahydroazepine, 3], the Ki in test [1] is > 10 µM; in test [2], > 1000 µM.
Regarding `O=C(N[C@@H]1CNCCC[C@H]1OC(=O)c1cc(O)c(C(=O)c2c(O)cccc2C(=O)O)c(O)c1)c1ccc(O)cc1` [Acyclic Balanol Analog (-)-1], in test [2], the Ki is 0.0053 µM.
On to `O=S(ONCCNC/C=C/c1ccc(Br)cc1)c1cccc2cnccc12` (stereo unspecified) [H-89, 10], for which the values for the Ki in test [1] and in test [2] were 0.048 µM and 31.7 µM, respectively.
Regarding `COC(=O)c1cc(O)c(C(=O)c2c(O)cccc2C(=O)O)c(O)c1` [Benzophenone fragment, 2], the Ki in test [1] (30 °C) was > 10 µM; in test [2] (pH 7.5), > 1000 µM.
Consider `O=C(N[C@@H]1CNCCC[C@H]1OC(=O)c1cc(O)c(C(=O)c2c(O)cccc2C(=O)O)c(O)c1)c1ccccc1` [5'-Deoxybalanol, 7], for which, in test [1] (30 °C), the IC50 stood at 0.0057 µM and the Ki was 0.0035 µM. In test [2] (pH 7.5), this molecule returned an IC50 of 0.095 µM and a Ki of 0.069 µM.

As a reminder, the Ki is the dissociation constant of the complex between target and ligand, obtained from inhibition or displacement. One may read the IC50 as the concentration that inhibits the measured activity by half. Lower therefore signals inhibition by little substance.
